Where a name gives a salt, the structure may show the parent alone. Read-outs that look alike come from different tables or passages of the source. Marks after values point to notes of the source that are not given here.
Experiments:
[1] = biological target: batrachotoxin receptors in the synaptosome from the rat brain (sodium channel); test: Inhibition of the binding of batrachotoxin to receptors in rat brain synaptosome; settings: 1.5 nM tritiated batrachotoxin A20-alfa-benzoate, 100 μM veratridine, 37° C., 30 minutes
[2] = test system: isolated myocardial cells; test: Inhibition of veratrine-induced contracture of isolated myocardial cells; format: cell-based; settings: Rattus norvegicus; veratrine 100 μg/mL, test compound 30 minutes before
Procedure: Specifically, the heart removed from the rat according to the Langendorff's method was treated with an enzyme, and isolated myocardial cells were obtained. The myocardial cells were inoculated on a 48 multi-well plate (3548 Coster) previously coated with poly-L-lysine at a rate of 1×10^4 cells/well. The plate was kept at 37° C. for 1 hour while being exposed to a flow of gas comprising 95% O2 and 5% CO2, to allow the cells to adhere to the bottom of each well. Then, the test compound was added to each well, and allowed to be there for 30 minutes, and […] to each well to 100 μg/mL. Five minutes later, the cells of each well was checked for their morphological changes, and the changes were photographed. If the cells' shape changed from a rod-like one into a ball-like one in the presence of veratrine, the cells were regarded as falling to contracture as a result of the exposure to veratrine. The inhibitory effect of the test compound on the contracture was determined by the probit method, and was expressed in terms of IC50. Veratrine is a mixture of […] alkaloids. If veratrine is applied to isolated myocardial cells, the cells which take a rod-like shape in a normal state will fall to contracture, taking a ball-like shape. Veratrine, when applied to isolated myocardial cells, is thought to cause a persistent sodium current in the cells, by suppressing the inactivation of the sodium channel in the cells, which leads to the contracture of the cells (Donck et al., ibid).

[3] = test system: formalin-induced nociceptive response; test: Formalin-induced nociceptive response in rats; format: in vivo, rat; settings: for inhibition in vivo at 10 mg/kg: Rattus norvegicus, po, 10 mg/kg orally 30 minutes before formalin
Procedure: Specifically, 25 μL of 0.5% formalin solution was subcutaneously injected into the left foot pad of the rat, and then each behavior of the rat consisting of the licking or biting of the pad immediately following the injection was checked with a stopwatch for its duration, and its cumulative duration was recorded at five minute intervals. […] The test compound was orally applied to the rat 30 minutes before the subcutaneous injected of formalin. Then, the inhibitory effect of the test compound on the nociceptive response induced by the formalin injection was calculated according to the following formula. To mention, for illustration, the inhibitory effect of carbamazepine, an agent to serve as a comparative example, if it is orally applied at 50 mg/kg, it inhibits the first-phase response by 52%, while it inhibits the second-phase response by 59%. Percent inhibition (%) -[([…]]×100 wherein […] is the response time (sec) of the test group which received formalin and the test compound, while PRcontol is the response time of the control group which received formalin alone.

[4] = test system: response threshold to a mechanical stimulus; test: Rat model made by loosely constricting the sciatic nerve (Bennett), von Frey threshold; format: in vivo; settings: constriction, 1 hour after dosing
Procedure: (“Pain,” 33:87, 1988). Specifically, the rat was anesthetized with i.p. injection of pentobarbital sodium at 40 mg/kg; the overlying skin was cut open; and the left biceps femoris muscle was bluntly separated. The sciatic nerve was isolated from surrounding tissues; it was gently constricted at four sites about 1 mm apart from each other by the use of surgical gut sutures (4-0); the operated part was closed; and the rat was returned to its cage for further feeding. For the rat belonging to the sham-surgery group, the same operation was performed except that the sciatic nerve was left untouched. Two weeks after the surgery, the response threshold to a mechanical stimulus consisting of touch with a von Frey filament was determined. The test proceeded as follows: the test compound dissolved or suspended in a solvent (0.5% aqueous solution of hydroxypropylmethyl cellulose) was orally applied to the rat having the sciatic nerve constricted; one hour later, von Frey hairs were applied against the foot pad (spots ranging from heel to the mid-point of foot) one after another in an ascending order of their stiffness; if the rat raises its foot when a certain von Frey hair was applied, the stimulus intensity of that hair was taken as the response threshold (maximum stimulus intensity being 28.84g).

[5] = test system: transient sodium current in neuroblastoma cells; test: Voltage-clamp, transient sodium current; settings: at 53 μM
Procedure: This experiment was undertaken by the method disclosed by Verdonck et al., Eur. J. Pharmacol., 203:371, 1991. Neuroblastoma cells were used. Isolated cells were strewn over a recording chamber filled with perfusion fluid; the membrane currents are recorded in a whole cell configuration by the voltage-clamp method based on the use of a glass microcapillary. Current components due to ions other than sodium ion were eliminated as follows. The potassium current was removed by cesium ion introduced in the capillary, and the calcium current was removed by cobalt ion added to the perfusion fluid. Measurement of the transient sodium current of the cells was achieved by applying depolarizing pulses at appropriate intervals to the cells clamped at holding potential, and by observing a transient inward current elicited therewith.

[6] = test system: Crj:CD(SD) IGS female rats; test: Toxicological study, 14-day oral gavage; settings: 5 or 10 mg/kg/day orally once daily for 14 days
[7] = 10 min, first 10 minutes, read-out: Response inhibition, 1st phase
[8] = 0.75 h, 10 to 45 minutes, read-out: Response inhibition, 2nd phase

With `CC(C)Oc1ccc(NCCC2(O)CCN(CCc3ccc(C#N)cc3)CC2)cc1.Cl.Cl` the melting point was 197.3 °C (dec.).

With `CC(C)Oc1ccc(N(C)CCC2(O)CCN(CCc3ccccc3)CC2)cc1.Cl.Cl` [Example 50, 4-[2-[N-methyl-N-(4-isopropoxyphenyl)-amino]ethyl]-1-(2-phenylethyl)piperidin-4-ol dihydrochloride] the IC50 [1] was 0.3 µM, the IC50 [2] was 1.51 µM and the inhibition in vivo at 10 mg/kg [3, 7] was 44%. The inhibition in vivo at 10 mg/kg [3, 8] was 64% and the melting point was 189.7 to 192.6 °C.

In the case of `CC(C)Oc1ccc(N(C)CCC2(O)CCN(CCc3ccc(C#N)cc3)CC2)cc1.Cl.Cl` [Example 51, 1-[2-(4-cyanophenyl)ethyl]-4-[2-[N-methyl-N-(4-isopropoxyphenyl)amino]ethyl]piperidin-4-ol dihydrochloride], the IC50 [1] is reported as 0.61 µM, the IC50 [2] is reported as 1.56 µM and the inhibition in vivo at 10 mg/kg [3, 7] is reported as 46%. The inhibition in vivo at 10 mg/kg [3, 8] was 67%, the “Mean threshold, normal foot (right)” value ([4]; 2.5 mg/kg oral) was 16.43 g and the “Mean threshold, test foot (left)” value ([4]; 2.5 mg/kg oral) was 8.33 g. For the same compound, the “Mean threshold, normal foot (right)” value ([4]; 5 mg/kg oral) was 16.43 g, the “Mean threshold, test foot (left)” value ([4]; 5 mg/kg oral) was 12.63* g and the “Mean threshold, normal foot (right)” value ([4]; 10 mg/kg oral) was 16.85 g. For the same compound, the “Mean threshold, test foot (left)” value ([4]; 10 mg/kg oral) was 15.58** g, the “Decrease of the peak value of the transient inward current” value [5] was 18% and the Body weight [6] was “no loss in the weight”. The General conditions [6] was “no notable abnormalities in general conditions”, the Histopathological examination [6] was “no abnormal findings were obtained” and the “Survival during treatment period” value [6] was “All the rats survived”.

`CC(C)Oc1ccc(N(C)CCC2(O)CCN(CCc3ccc(F)cc3)CC2)cc1.Cl.Cl` [Example 55, 1-[2-(4-fluorophenyl)ethyl]-4-[2-[N-methyl-N-(4-isopropoxyphenyl)amino]ethyl]piperidin-4-ol dihydrochloride] showed an IC50 [1] of 0.28 µM, an IC50 [2] of 1.34 µM and an inhibition in vivo at 10 mg/kg [3, 7] of 30%. For the same compound, the inhibition in vivo at 10 mg/kg [3, 8] was 55% and the melting point was 252 °C (dec.).

`CC(C)Oc1ccc(N(C)CCC2(O)CCN(CCc3ccc([N+](=O)[O-])cc3)CC2)cc1` [Example 56, 4-[2-[N-methyl-N-(4-isopropoxyphenyl)amino]ethyl]-1-[2-(4-nitrophenyl)ethyl]piperidin-4-ol dihydrochloride] showed an inhibition in vivo at 10 mg/kg [3, 7] of 40% and an inhibition in vivo at 10 mg/kg [3, 8] of 70%.

`CC(C)Oc1ccc(N(C)CCC2(O)CCN(CCc3cccc(F)c3)CC2)cc1` [Example 58, 1-[2-(3-fluorophenyl)ethyl]-4-[2-[N-methyl-N-(4-isopropoxyphenyl)amino]ethyl]piperidin-4-ol dihydrochloride] showed an inhibition in vivo at 10 mg/kg [3, 7] of 29% and an inhibition in vivo at 10 mg/kg [3, 8] of 56%.

With `CC(C)Oc1ccc(N(C)CCC2(O)CCN(CCc3ccc(Cl)cc3)CC2)cc1` [Example 60, 1-[2-(4-chlorophenyl)ethyl]-4-[2-[N-methyl-N-(4-isopropoxyphenyl)amino]ethyl]piperidin-4-ol dihydrochloride] the inhibition in vivo at 10 mg/kg [3, 7] was 61% and the inhibition in vivo at 10 mg/kg [3, 8] was 92%.

Work on `CC(C)Oc1ccc(N(C)CCC2(O)CCN(CCc3ccccc3C(F)(F)F)CC2)cc1` [Example 65, 4-[2-[N-methyl-N-(4-isopropoxyphenyl)amino]ethyl]-1-[2-[2-(trifluoromethyl)phenyl]ethyl]piperidin-4-ol dihydrochloride] yielded an inhibition in vivo at 10 mg/kg [3, 7] of 93% and an inhibition in vivo at 10 mg/kg [3, 8] of 96%.

For `CC(C)Oc1ccc(N(C)CCC2(O)CCN(CCc3ccoc3)CC2)cc1.Cl.Cl` [Example 84, 1-[2-(3-furyl)ethyl]-4-[2-[N-methyl-N-(4-isopropoxyphenyl)amino]ethyl]piperidin-4-ol dihydrochloride], the inhibition in vivo at 10 mg/kg [3, 7] was 23%, the inhibition in vivo at 10 mg/kg [3, 8] was 49% and the melting point was 202.6 to 203.9 °C.

With `CC(C)Oc1ccc(N(C)CCC2(O)CCN(CCc3cccs3)CC2)cc1.Cl.Cl` [Example 86, 4-[2-[N-methyl-N-(4-isopropoxyphenyl)amino]ethyl]-1-[2-(2-thienyl)ethyl]piperidin-4-ol dihydrochloride] the IC50 [2] was 1.65 µM, the inhibition in vivo at 10 mg/kg [3, 7] was 19% and the inhibition in vivo at 10 mg/kg [3, 8] was 62%. It also gave a melting point of 203 to 204.5 °C.

Work on `CCOc1ccc(N(C)CCC2(O)CCN(CCc3ccc(C#N)cc3)CC2)cc1.Cl.Cl` [Example 90, 1-[2-(4-cyanophenyl)ethyl]-4-[2-[N-(4-ethoxyphenyl)-N-methylamino]ethyl]piperidin-4-ol dihydrochloride] yielded an inhibition in vivo at 10 mg/kg [3, 7] of 55%, an inhibition in vivo at 10 mg/kg [3, 8] of 65% and a melting point of 214 to 215.2 °C.

`CC(C)Oc1ccc(N(C)CC2(O)CCN(CCc3ccc(C#N)cc3)CC2)cc1.Cl.Cl` [Example 96, 1-[2-(4-cyanophenyl)ethyl]-4-[N-methyl-N-(4-isopropoxyphenyl)aminomethyl]piperidin-4-ol dihydrochloride] gave an inhibition in vivo at 10 mg/kg [3, 7] of 74%, an inhibition in vivo at 10 mg/kg [3, 8] of 69% and a melting point of 202.8 to 203.4 °C.

For `NC(=O)N1c2ccccc2C=Cc2ccccc21` [carbamazepine, reference compound], the IC50 [1] was no less than 300 µM, the “Inhibition of the first-phase response” value ([3]; orally applied at 50 mg/kg) was 52% and the “Inhibition of the second-phase response” value ([3]; orally applied at 50 mg/kg) was 59%. For the same compound, the “Mean threshold, normal foot (right)” value ([4]; 50 mg/kg oral) was 19.85 g, the “Mean threshold, test foot (left)” value ([4]; 50 mg/kg oral) was 8.97 g and the “Mean threshold, normal foot (right)” value ([4]; 100 mg/kg oral) was 27.13 g. The “Mean threshold, test foot (left)” value ([4]; 100 mg/kg oral) was 19.43** g.

For `Cc1cccc(C)c1OCC(C)N` (centres unmarked) [mexiletine, reference compound], the IC50 [1] was 17 µM.

For `O=C1NC(=O)C(c2ccccc2)(c2ccccc2)N1` [phenytoin, reference compound], the IC50 [1] was 51 µM.
